# Data: patent US11807625B2, “Capsid inhibitors for the prevention of HIV” (Gilead Sciences, Inc., priority 2019, dated 2023)
# Like-named read-outs stand apart in the source and are kept apart here.
# Test: PK of compound of Formula (Ia) after single subcutaneous dose of solution formulations in beagle dogs
# Type: in vivo
# Conditions: male, beagle, dog, plasma, sc; for AUC(0-t): 6 mg/kg, mean ± SD, SC 6 mg/kg, solution V, 300 mg/mL
# Procedure: Formulations containing the compound of Formula (Ia), or a pharmaceutically acceptable salt thereof, were prepared as solutions and optionally administered subcutaneously or intramuscularly to rats, rabbits, and/or dogs.
# A solution of about 400 mg/mL of the compound of Formula (Ia) having 17.00 w/w % water, 36.40 w/w % PEG 300, 35.20 w/w % of a sodium salt of a compound of Formula (Ia), 5.00 w/w % ethanol, and 6.40 w/w % poloxamer 188 was prepared. The solution was administered subcutaneously to male beagle dogs at a dose level of about 12 mg/kg and male Wistar Han rats at a dose level of about 50 mg/kg. The pharmacokinetic profiles were determined, and the results for dogs are summarized in Table and Table, while the results for rats are summarized in Table and Table below.
# A solution of about 500 mg/mL of the compound of Formula (Ia) having 14.06 w/w % water, 30.12 w/w % PEG 300, […] of a sodium salt of a compound of Formula (Ia), 5.00 w/w % ethanol, and 6.40 w/w % poloxamer 188 was prepared. The solution was administered subcutaneously to male beagle dogs at a dose level of about 12 mg/kg and male Wistar Han rats at a dose level of about 50 mg/kg. The pharmacokinetic profiles were determined, and the results for dogs are summarized in Table and Table, while the results for rats are summarized in Table and Table below.
# A solution of about 300 mg/mL of the compound of Formula (Ia) having 23.33 w/w % water, 48.99 w/w % PEG 300, 26.47 w/w % of a sodium salt of a compound of Formula (Ia), and 1.21 w/w % poloxamer 188 was prepared. The solution was administered subcutaneously to male beagle dogs at a dose level of about 6 mg/kg and male Wistar Han rats at a dose level of about 50 mg/kg. The pharmacokinetic profiles were determined, and the results for dogs are summarized in Table and Table, while the results for rats are summarized in Table and Table below.
# A solution of about 400 mg/mL of the compound of Formula (Ia) having 18.80 w/w % water, 40.25 w/w % PEG 300, 34.38 w/w % of a sodium salt of a compound of Formula (Ia), 5.00 w/w % ethanol, and 1.57 w/w % poloxamer 188 was prepared. The solution was administered subcutaneously to male beagle dogs at a dose level of about 12 mg/kg and male Wistar Han rats at a dose level of about 50 mg/kg. The pharmacokinetic profiles were determined, and the results for dogs are summarized in Table and Table, while the results for rats are summarized in Table and Table below.
# A solution of about 500 mg/mL of the compound of Formula (Ia) having 16.29 w/w % water, 34.88 w/w % PEG 300, 41.92 w/w % of a sodium salt of a compound of Formula (Ia), 5.00 w/w % ethanol, and 1.91 w/w % poloxamer 188 was prepared. The solution was administered subcutaneously to male beagle dogs at a dose level of about 12 mg/kg and male Wistar Han rats at a dose level of about 50 mg/kg. The pharmacokinetic profiles were determined, and the results for dogs are summarized in Table and Table, while the results for rats are summarized in Table and Table below.
# A solution of about 400 mg/mL of the compound of Formula (Ia) having 20.90 w/w % water, 44.72 w/w % PEG 300, and 34.38 w/w % of a sodium salt of a compound of Formula (Ia) was prepared. The solution was administered subcutaneously to male beagle dogs at a dose level of about 12 mg/kg and male Wistar Han rats at a dose level of about 50 mg/kg. The pharmacokinetic profiles were determined, and the results for dogs are summarized in Table and Table, while the results for rats are summarized in Table and Table below.
# A solution of about 400 mg/mL of the compound of Formula (Ia) having 19.90 w/w % water, 42.59 w/w % PEG 300, 34.38 w/w % of a sodium salt of a compound of Formula (Ia), and 3.13 w/w % poloxamer 188 was prepared. The solution was administered subcutaneously to male beagle dogs at a dose level of about 12 mg/kg and male Wistar Han rats at a dose level of about 50 mg/kg. […]
# [1] = 12 mg/kg, mean, n = 3 dogs, SC 12 mg/kg, solution T, 400 mg/mL
# [2] = 12 mg/kg, mean, n = 3 dogs, SC 12 mg/kg, solution U, 500 mg/mL
# [3] = 12 mg/kg, individual dogs, SC 12 mg/kg, solution T, 400 mg/mL
# [4] = 12 mg/kg, individual dogs, SC 12 mg/kg, solution U, 500 mg/mL
# [5] = 12 mg/kg, beagle dogs, SC 12 mg/kg, 400 mg/mL solution AA (6.25% poloxamer 188), Mean n = 3
# [6] = 12 mg/kg, beagle dogs, SC 12 mg/kg, 400 mg/mL solution AA (6.25% poloxamer 188), animals #1-#3
# [7] = 12 mg/kg, beagle dogs, SC 12 mg/kg, 400 mg/mL solution W (5.00% ethanol, 1.57% poloxamer 188), Mean n = 3
# [8] = 12 mg/kg, beagle dogs, SC 12 mg/kg, 400 mg/mL solution W (5.00% ethanol, 1.57% poloxamer 188), animals #1-#3
compound,measurement,setting,value
CC(C)(C#Cc1ccc(-c2ccc(Cl)c3c(NS(C)(=O)=O)nn(CC(F)(F)F)c23)c([C@H](Cc2cc(F)cc(F)c2)NC(=O)Cn2nc(C(F)(F)F)c3c2C(F)(F)[C@@H]2C[C@H]32)n1)S(C)(=O)=O [compound of Formula (Ia)],AUC(0-t),"n = 3 dogs, read-out: AUC0-2016 h",107 ± 12 µM·h
same,AUC(0-t),"n = 3 dogs, read-out: AUC0-2253 h",109 ± 12 µM·h
same,AUC(0-t),"n = 3 dogs, read-out: AUC0-2688 h",110 ± 12 µM·h
same,AUC(0-t),"n = 3 dogs, read-out: AUC0-3024 h",111 ± 13 µM·h
same,AUC(0-t),"n = 3 dogs, read-out: AUC0-4032 h",112 ± 13 µM·h
same,AUC(0-t),"n = 3 dogs, read-out: AUC0-4368 h",112 ± 13 µM·h
same,concentration at 1 h,[1],0.00607 µM
same,concentration at 1 h,[2],0.00559 µM
same,concentration at 3 h,[1],0.0181 µM
same,concentration at 3 h,[2],0.022 µM
same,concentration at 8 h,[3],0.0839 µM
same,concentration at 8 h,[1],0.0729 µM
same,concentration at 8 h,[2],0.0612 µM
same,concentration at 24 h,[3],0.233 µM
same,concentration at 24 h,[1],0.224 µM
same,concentration at 24 h,[2],0.134 µM
same,concentration at 48 h,[4],0.0728 µM
same,concentration at 48 h,[1],0.241 µM
same,concentration at 48 h,[2],0.0872 µM
same,concentration at 72 h,[4],0.0494 µM
same,concentration at 72 h,[1],0.223 µM
same,concentration at 72 h,[2],0.0586 µM
same,concentration at 96 h,[4],0.049 µM
same,concentration at 96 h,[1],0.232 µM
same,concentration at 96 h,[2],0.0524 µM
same,concentration at 168 h,[1],0.221 µM
same,concentration at 168 h,[2],0.0975 µM
same,concentration at 336 h,[3],0.179 µM
same,concentration at 336 h,[4],0.114 µM
same,concentration at 336 h,[1],0.261 µM
same,concentration at 336 h,[2],0.152 µM
same,concentration at 504 h,[3],0.286 µM
same,concentration at 504 h,[4],0.151 µM
same,concentration at 504 h,[1],0.238 µM
same,concentration at 504 h,[2],0.149 µM
same,concentration at 672 h,[3],0.15 µM
same,concentration at 672 h,[1],0.116 µM
same,concentration at 672 h,[2],0.0819 µM
same,concentration at 840 h,[1],0.0908 µM
same,concentration at 840 h,[2],0.0726 µM
same,concentration at 1008 h,[3],0.0755 µM
same,concentration at 1008 h,[1],0.0736 µM
same,concentration at 1008 h,[2],0.0583 µM
same,concentration at 1344 h,[3],0.0425 µM
same,concentration at 1344 h,[4],0.0433 µM
same,concentration at 1344 h,[1],0.0362 µM
same,concentration at 1344 h,[2],0.0348 µM
same,concentration at 1680 h,[3],0.0199 µM
same,concentration at 1680 h,[1],0.0239 µM
same,concentration at 1680 h,[2],0.0213 µM
same,concentration at 2016 h,[1],0.0118 µM
same,concentration at 2016 h,[2],0.0103 µM
same,concentration at 2352 h,[3],0.0048 µM
same,concentration at 2352 h,[1],0.006 µM
same,concentration at 2352 h,[2],0.0075 µM
same,concentration at 1 h,[5],0.004 µM
same,concentration at 3 h,[5],0.0138 µM
same,concentration at 8 h,[5],0.0423 µM
same,concentration at 24 h,[5],0.134 µM
same,concentration at 24 h,[6],0.118 µM
same,concentration at 48 h,[5],0.148 µM
same,concentration at 48 h,[6],0.102 µM
same,concentration at 72 h,[5],0.135 µM
same,concentration at 96 h,[5],0.18 µM
same,concentration at 96 h,[6],0.14 µM
same,concentration at 168 h,[5],0.101 µM
same,concentration at 168 h,[6],0.106 µM
same,concentration at 336 h,[5],0.185 µM
same,concentration at 336 h,[6],0.204 µM
same,concentration at 504 h,[5],0.182 µM
same,concentration at 672 h,[5],0.183 µM
same,concentration at 672 h,[6],0.157 µM
same,concentration at 840 h,[5],0.109 µM
same,concentration at 840 h,[6],0.103 µM
same,concentration at 1008 h,[5],0.0854 µM
same,concentration at 1008 h,[6],0.0776 µM
same,concentration at 1334 h,[5],0.0476 µM
same,concentration at 1334 h,[6],0.0358 µM
same,concentration at 1680 h,[5],0.028 µM
same,concentration at 1680 h,[6],0.024 µM
same,concentration at 2016 h,[5],0.0154 µM
same,concentration at 2016 h,[6],0.0102 µM
same,concentration at 2352 h,[5],0.0105 µM
same,concentration at 2688 h,"12 mg/kg, beagle dogs, SC 12 mg/kg, 400 mg/mL solution AA (6.25% poloxamer 188), 2688 h, Mean n = 3",0.00547 µM
same,concentration at 3024 h,"12 mg/kg, beagle dogs, SC 12 mg/kg, 400 mg/mL solution AA (6.25% poloxamer 188), 3024 h, Mean n = 3",0.00354 µM
same,concentration at 3360 h,"12 mg/kg, beagle dogs, SC 12 mg/kg, 400 mg/mL solution AA (6.25% poloxamer 188), 3360 h, Mean n = 3",0.00197 µM
same,concentration at 3696 h,"12 mg/kg, beagle dogs, SC 12 mg/kg, 400 mg/mL solution AA (6.25% poloxamer 188), Mean",0.00156 µM
same,concentration at 3696 h,[6],0.00163 µM
same,concentration at 3 h,[7],0.00384 µM
same,concentration at 3 h,[8],0.00345 µM
same,concentration at 8 h,[7],0.018 µM
same,concentration at 24 h,[7],0.0378 µM
same,concentration at 24 h,[8],0.0354 µM
same,concentration at 48 h,[7],0.0482 µM
same,concentration at 72 h,[7],0.0486 µM
